Measurements as given in patent publication US20240269139A1, “COMPOUNDS FOR TARGETED PROTEIN DEGRADATION OF KINASES” (DANA-FARBER CANCER INSTITUTE, INC., priority 2020, published 2024).
Where two headings read alike, the source gives them in different places.

How the values were obtained:
Type in all cases: cell-based
[1] = target: protein kinases (human kinome) (Homo sapiens, UniProt P30291)
Text: (§1) Although development of targeted protein degraders requires a POI binder, among already-liganded proteins such as kinases, it was hypothesized that different targets would have a different propensity for current approaches to degrader-mediated destruction, which was termed ‘degradability’. […] It was rationalized that the probability of identifying the same kinase as a false positive in multiple treatments is low, therefore this analysis served to also assess the robustness of our data and subsequent interpretations. […] Overall, 62 protein kinases were degraded in more than 10 independent treatments, and remarkably, 9 of these (CDK4, AURKA, FER, WEE1, BLK. LIMK2, CDK6, GAK, LIMK1) were each degraded in at least 40 of the 154 independent treatments, emphasizing their predisposition to induced degradation (FIG. 1G; Appendix I).
(§2) Next, the frequency of degradation assessment was corrected for over-representation of molecules in the full dataset by omitting replicate profiling of compounds under different experimental conditions, to remove any bias. […] Unsurprisingly, the top degradable kinases mirror those from the previous analysis (CDK4, AURKA, FER, WEE1, BLK), confirming that in sufficiently large datasets, even with over-representation of certain molecules, frequency of degradation is a good measure of general tractability.

[2] = target: protein kinases (human kinome) (Homo sapiens, UniProt P11802)
Text: as §1, §2

[3] = target: protein kinases (human kinome) (Homo sapiens, UniProt Q00537)
Text: as §1, §2

[4] = test system: protein kinases (human kinome); details: for logFC MAPK14: experiment wp047
Text: as §1, §2

[5] = target: protein kinases (human kinome) (Homo sapiens, UniProt Q16539)
Text: as §1, §2

[6] = target: protein kinases (human kinome) (Homo sapiens, UniProt P53667); details: LIMK1 (P53667-1)
Text: as §1, §2

[7] = target: protein kinases (human kinome) (Homo sapiens, UniProt P53671); details: for logFC LIMK2: LIMK2 (P53671), down; for logFC of LIMK2: LIMK2 P53671
Text: as §1, §2

[8] = target: protein kinases (human kinome) (Homo sapiens, UniProt Q2M2I8)
Text: as §1, §2

[9] = target: T1, protein kinases (human kinome) (Homo sapiens, UniProt O14965)
T1 sequence (O14965 1-403): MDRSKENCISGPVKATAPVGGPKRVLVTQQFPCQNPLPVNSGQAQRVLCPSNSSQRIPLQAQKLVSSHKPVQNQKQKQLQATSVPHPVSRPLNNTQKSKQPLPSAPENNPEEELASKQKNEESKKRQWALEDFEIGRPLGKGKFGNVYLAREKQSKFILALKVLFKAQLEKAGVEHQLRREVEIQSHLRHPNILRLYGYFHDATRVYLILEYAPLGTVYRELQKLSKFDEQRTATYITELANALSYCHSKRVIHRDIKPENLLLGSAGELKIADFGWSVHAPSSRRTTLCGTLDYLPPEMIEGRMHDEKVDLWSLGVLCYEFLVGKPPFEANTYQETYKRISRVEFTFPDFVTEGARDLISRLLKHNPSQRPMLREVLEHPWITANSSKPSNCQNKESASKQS
Text: as §1, §2

[10] = target: T2, protein kinases (human kinome) (Homo sapiens, UniProt O14976)
T2 sequence (O14976 1-1311): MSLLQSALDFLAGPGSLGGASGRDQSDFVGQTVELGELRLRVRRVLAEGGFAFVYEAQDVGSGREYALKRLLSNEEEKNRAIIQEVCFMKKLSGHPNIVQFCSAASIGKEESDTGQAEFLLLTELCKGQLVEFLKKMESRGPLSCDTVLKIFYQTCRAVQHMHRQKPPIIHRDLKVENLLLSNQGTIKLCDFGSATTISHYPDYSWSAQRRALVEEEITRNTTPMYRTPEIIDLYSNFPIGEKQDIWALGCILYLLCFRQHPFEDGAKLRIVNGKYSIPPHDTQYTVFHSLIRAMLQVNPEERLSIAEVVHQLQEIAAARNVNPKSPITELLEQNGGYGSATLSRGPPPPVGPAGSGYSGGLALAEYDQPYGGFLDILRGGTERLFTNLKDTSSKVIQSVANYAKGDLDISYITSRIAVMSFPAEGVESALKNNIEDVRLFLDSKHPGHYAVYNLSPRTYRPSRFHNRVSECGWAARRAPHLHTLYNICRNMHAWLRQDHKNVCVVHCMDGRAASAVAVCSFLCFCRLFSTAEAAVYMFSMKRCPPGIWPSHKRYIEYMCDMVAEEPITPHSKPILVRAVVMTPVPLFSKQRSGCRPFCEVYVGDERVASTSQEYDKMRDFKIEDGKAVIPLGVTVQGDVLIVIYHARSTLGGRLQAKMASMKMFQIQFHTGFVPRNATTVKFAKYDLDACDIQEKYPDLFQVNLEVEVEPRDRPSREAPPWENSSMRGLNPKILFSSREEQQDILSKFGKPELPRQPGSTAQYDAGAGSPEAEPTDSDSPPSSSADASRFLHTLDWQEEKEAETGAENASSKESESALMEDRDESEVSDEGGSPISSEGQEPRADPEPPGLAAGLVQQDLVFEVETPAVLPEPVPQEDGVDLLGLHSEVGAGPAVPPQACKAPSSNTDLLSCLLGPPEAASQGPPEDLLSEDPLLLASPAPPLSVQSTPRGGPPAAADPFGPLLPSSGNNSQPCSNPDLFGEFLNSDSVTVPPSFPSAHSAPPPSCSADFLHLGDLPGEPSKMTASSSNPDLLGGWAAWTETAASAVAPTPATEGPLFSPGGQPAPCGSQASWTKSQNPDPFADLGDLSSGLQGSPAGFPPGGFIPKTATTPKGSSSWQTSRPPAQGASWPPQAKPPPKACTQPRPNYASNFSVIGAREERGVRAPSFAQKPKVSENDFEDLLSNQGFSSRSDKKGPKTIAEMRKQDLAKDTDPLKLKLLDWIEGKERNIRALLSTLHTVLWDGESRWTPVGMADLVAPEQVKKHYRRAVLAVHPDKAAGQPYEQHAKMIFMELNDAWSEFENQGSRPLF
Text: as §1, §2

[11] = target: protein kinases (human kinome) (Homo sapiens, UniProt P51451)
Text: as §1, §2

[12] = target: T3, protein kinases (human kinome) (Homo sapiens, UniProt Q9UEE5); details: STK17A Q9UEE5; experiment wp149
T3 sequence (Q9UEE5 1-414): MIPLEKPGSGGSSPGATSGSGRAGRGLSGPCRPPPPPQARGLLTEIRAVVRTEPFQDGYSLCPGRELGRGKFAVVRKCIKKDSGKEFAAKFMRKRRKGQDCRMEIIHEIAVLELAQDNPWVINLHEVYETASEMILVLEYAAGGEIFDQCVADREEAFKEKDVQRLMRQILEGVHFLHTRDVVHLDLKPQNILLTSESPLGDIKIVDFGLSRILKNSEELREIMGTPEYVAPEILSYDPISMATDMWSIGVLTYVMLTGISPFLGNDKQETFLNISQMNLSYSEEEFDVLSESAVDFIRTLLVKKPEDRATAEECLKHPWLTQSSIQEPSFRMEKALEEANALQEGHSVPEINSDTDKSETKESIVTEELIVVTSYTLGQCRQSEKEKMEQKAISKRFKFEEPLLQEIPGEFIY
Text: as §1, §2

[13] = AURKB Q96GD4-5, experiment wp080

protein kinases (human kinome) (Homo sapiens, UniProt P11802), sequence (P11802 whole entry): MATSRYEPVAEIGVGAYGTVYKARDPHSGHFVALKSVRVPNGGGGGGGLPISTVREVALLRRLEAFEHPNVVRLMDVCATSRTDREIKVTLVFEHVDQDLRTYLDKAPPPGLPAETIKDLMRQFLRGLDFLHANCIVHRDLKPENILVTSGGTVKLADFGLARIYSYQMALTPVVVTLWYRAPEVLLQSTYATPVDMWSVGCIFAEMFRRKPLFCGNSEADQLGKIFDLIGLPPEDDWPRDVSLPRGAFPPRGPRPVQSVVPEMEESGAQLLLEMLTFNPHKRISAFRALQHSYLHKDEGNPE
protein kinases (human kinome) (Homo sapiens, UniProt Q2M2I8), sequence (Q2M2I8 whole entry): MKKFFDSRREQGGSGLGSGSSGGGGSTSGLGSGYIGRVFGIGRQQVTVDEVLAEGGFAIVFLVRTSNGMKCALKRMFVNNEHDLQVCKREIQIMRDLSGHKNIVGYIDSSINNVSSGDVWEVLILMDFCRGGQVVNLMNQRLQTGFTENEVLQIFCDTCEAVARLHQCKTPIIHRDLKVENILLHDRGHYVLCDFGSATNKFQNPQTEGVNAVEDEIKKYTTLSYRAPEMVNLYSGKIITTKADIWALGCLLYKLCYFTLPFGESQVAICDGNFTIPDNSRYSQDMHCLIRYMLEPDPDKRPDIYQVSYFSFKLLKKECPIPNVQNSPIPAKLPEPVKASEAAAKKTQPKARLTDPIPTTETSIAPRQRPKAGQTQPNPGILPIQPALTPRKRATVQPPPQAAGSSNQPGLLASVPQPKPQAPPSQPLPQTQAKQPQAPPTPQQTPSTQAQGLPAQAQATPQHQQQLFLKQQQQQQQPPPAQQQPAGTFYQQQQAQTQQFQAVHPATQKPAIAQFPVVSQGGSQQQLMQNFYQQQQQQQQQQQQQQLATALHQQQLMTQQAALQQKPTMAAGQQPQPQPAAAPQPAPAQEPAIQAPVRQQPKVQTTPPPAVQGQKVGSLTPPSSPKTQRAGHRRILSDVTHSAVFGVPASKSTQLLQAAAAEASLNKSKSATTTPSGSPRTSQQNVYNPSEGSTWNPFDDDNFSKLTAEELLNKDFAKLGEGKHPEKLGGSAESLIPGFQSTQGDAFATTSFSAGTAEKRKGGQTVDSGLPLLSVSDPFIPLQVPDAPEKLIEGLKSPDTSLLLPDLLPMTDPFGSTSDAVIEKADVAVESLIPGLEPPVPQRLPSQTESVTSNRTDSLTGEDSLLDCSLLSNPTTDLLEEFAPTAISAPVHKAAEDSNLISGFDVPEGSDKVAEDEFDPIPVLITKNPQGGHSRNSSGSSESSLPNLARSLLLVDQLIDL
protein kinases (human kinome) (Homo sapiens, UniProt P30291), sequence (P30291 whole entry): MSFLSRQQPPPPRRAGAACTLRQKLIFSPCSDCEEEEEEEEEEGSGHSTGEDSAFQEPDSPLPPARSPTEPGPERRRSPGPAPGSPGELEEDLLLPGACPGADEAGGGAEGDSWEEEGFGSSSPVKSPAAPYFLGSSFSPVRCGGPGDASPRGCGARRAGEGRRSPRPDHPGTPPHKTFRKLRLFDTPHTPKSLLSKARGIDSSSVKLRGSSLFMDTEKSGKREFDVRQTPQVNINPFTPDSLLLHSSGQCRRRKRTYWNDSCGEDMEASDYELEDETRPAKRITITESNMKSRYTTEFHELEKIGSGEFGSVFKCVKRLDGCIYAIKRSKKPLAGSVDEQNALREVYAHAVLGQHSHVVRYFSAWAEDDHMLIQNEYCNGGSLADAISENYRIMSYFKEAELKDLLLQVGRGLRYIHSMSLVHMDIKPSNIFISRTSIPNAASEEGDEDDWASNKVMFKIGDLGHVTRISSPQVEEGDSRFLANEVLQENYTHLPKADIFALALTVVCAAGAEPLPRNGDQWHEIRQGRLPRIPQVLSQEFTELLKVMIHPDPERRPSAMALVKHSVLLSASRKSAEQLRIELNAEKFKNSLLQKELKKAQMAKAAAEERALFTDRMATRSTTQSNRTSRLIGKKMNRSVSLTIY
protein kinases (human kinome) (Homo sapiens, UniProt Q00537), sequence (Q00537 whole entry): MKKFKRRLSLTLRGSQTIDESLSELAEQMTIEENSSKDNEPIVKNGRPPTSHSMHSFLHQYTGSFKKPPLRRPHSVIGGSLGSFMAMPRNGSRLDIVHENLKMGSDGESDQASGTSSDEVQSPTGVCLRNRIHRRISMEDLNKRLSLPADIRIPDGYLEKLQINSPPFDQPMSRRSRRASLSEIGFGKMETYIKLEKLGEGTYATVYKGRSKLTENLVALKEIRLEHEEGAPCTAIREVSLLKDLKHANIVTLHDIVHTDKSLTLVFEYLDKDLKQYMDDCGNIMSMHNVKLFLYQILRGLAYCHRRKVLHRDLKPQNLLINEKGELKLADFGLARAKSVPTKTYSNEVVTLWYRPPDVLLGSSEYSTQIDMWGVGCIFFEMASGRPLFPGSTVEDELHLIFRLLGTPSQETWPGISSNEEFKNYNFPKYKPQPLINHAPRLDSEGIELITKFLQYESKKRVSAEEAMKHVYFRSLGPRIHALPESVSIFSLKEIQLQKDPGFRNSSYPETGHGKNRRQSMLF
protein kinases (human kinome) (Homo sapiens, UniProt P53671), sequence (P53671 whole entry): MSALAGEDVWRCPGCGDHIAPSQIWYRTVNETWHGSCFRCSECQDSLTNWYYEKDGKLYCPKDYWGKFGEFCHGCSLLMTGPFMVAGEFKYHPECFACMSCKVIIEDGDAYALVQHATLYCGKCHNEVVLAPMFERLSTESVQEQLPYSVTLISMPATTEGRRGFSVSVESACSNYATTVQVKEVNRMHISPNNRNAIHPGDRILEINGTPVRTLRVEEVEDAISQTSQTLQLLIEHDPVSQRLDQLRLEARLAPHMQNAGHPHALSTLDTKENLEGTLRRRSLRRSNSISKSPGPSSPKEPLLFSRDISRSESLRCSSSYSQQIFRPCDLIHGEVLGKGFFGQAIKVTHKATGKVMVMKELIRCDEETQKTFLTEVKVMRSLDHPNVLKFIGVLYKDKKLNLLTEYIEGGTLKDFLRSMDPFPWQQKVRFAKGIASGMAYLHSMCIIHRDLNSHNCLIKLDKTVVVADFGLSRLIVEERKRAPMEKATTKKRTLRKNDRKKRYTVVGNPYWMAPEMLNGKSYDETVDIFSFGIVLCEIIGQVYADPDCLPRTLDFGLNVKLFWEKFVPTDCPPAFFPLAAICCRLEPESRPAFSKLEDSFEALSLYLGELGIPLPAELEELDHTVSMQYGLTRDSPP
protein kinases (human kinome) (Homo sapiens, UniProt P53667), sequence (P53667 whole entry): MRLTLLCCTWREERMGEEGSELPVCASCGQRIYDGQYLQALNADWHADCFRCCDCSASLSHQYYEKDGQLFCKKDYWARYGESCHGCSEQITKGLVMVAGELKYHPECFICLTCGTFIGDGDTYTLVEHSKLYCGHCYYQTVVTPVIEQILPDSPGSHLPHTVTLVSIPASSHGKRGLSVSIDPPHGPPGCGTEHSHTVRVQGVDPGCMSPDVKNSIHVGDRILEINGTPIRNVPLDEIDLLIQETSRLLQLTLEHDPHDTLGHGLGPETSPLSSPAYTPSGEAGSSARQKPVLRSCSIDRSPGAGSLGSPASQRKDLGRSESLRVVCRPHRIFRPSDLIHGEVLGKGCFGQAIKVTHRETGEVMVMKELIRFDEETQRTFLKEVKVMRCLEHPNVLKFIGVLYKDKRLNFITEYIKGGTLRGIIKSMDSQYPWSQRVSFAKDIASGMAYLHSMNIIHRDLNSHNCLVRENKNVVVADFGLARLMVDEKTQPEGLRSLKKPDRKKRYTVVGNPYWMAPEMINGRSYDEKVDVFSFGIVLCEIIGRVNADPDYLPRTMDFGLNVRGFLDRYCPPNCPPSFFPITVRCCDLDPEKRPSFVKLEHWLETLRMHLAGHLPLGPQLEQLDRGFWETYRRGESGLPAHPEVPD
protein kinases (human kinome) (Homo sapiens, UniProt P51451), sequence (P51451 whole entry): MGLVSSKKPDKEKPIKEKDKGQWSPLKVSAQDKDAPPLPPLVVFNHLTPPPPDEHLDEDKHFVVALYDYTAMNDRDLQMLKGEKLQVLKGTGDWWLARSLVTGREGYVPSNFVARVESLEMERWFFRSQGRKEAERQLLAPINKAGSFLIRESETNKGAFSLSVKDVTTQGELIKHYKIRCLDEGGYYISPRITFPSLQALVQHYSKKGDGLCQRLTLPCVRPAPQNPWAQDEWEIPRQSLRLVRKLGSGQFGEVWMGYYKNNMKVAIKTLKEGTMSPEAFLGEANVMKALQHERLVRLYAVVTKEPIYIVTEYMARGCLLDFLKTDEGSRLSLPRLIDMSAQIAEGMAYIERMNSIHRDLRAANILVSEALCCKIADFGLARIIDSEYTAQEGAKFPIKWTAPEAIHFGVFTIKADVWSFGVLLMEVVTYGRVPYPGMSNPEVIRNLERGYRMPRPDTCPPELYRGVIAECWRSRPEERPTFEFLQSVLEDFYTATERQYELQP
protein kinases (human kinome) (Homo sapiens, UniProt Q16539), sequence (Q16539 whole entry): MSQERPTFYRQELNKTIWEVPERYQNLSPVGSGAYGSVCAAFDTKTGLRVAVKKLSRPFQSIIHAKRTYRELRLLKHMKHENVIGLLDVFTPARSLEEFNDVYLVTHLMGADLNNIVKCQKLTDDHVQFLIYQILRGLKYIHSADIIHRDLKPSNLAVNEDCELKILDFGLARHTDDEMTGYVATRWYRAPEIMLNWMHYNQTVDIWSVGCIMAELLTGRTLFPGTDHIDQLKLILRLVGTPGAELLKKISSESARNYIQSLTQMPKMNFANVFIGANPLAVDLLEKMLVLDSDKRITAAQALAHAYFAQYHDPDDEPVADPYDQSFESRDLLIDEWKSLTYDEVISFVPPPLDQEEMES

CC(=O)c1c(C)c2cnc(Nc3ccc(N4CCN(CCCCNC(=O)CNc5cccc6c5C(=O)N(C5CCC(=O)NC5=O)C6=O)CC4)cn3)nc2n(C2CCCC2)c1=O (centres unmarked) [BSJ.01.147]
logFC of WEE1 ([1]; WEE1 P30291-1, experiment wp084): −0.5617
logFC WEE1 (P30291-1) ([1]; experiment wp005): −0.447
logFC WEE1 (P30291-1) ([1]; experiment wp084): −0.5617
logFC CDK4 (P11802) ([2]; experiment wp005): −1.415
logFC CDK4 (P11802) ([2]; experiment wp084): −1.8

CC(C)(C)c1nc(-c2cccc(NS(=O)(=O)c3c(F)cccc3F)c2F)c(-c2ccnc(NCCOCCNC(=O)CCOCCOCCNc3cccc4c3C(=O)N(C3CCC(=O)NC3=O)C4=O)n2)s1 (centres unmarked) [DD-03-106, N-(2-(2-((4-(2-(tert-butyl)-4-(3-((2,6-difluorophenyl)sulfonamido)-2-fluorophenyl)thiazol-5-yl)pyrimidin-2-yl)amino)ethoxy)ethyl)-3-(2-(2-((2-(2,6-dioxopiperidin-3-yl)-1,3-dioxoisoindolin-4-yl)amino)ethoxy)ethoxy)propenamide]
preference for degrading CDK17 [3]: strong preference for degrading CDK17
kinases the bifunctional compound degrades ([4]; as stated for the structure in the embodiments): AURKA, BCKDK, CDK1, CDK16, CDK17, CDK2, CDK3, CDK4, CDK6, COQ8A, COQ8B, CSK, EIF2AK2, LIMK1, LIMK2, MAP3K20, NLK, PLK1, PDK1, PDK2, and TESK2
Kinase hits ([4]; kinases significantly downregulated vs DMSO (fold change cutoff −1.25, P-value<0.01), ≤8 h, 0.1-5 μM degrader, 7 cell lines): AURKA, BCKDK, CDK1, CDK16, CDK17, CDK2, CDK3, CDK4, CDK6, COQ8A, COQ8B, CSK, EIF2AK2, LIMK1, LIMK2, MAP3K20, NLK, PLK1, PDK1, PDK2, TESK2
Total no. kinase hits ([4]; number of degraded kinases per library compound): 21

Cc1ccc(NC(=O)c2cccc(C(C)(C)C#N)c2)cc1Nc1ccc2ncn(CCOCCOCCC(=O)N[C@H](C(=O)N3C[C@H](O)C[C@H]3C(=O)NCc3ccc(-c4scnc4C)cc3)C(C)(C)C)c(=O)c2c1 [DD.02.198]
logFC MAPK14 ([4]; MAPK14, accession Q16539-2, direction of change down): −0.617
logFC MAPK14 ([4]; MAPK14 Q16539-2): −0.617
logFC ([5]; MAPK14 (Q16539) protein abundance, degrader vs DMSO, down): −1.387
logFC MAPK14 ([5]; MAPK14, accession Q16539, experiment wp047, direction of change down): −1.387

Cc1ncsc1-c1ccc([C@H](C)NC(=O)[C@@H]2C[C@@H](O)CN2C(=O)[C@@H](NC(=O)CCOCCOCCNc2nccc(-c3sc(C(C)(C)C)nc3-c3cccc(NS(=O)(=O)c4c(F)cccc4F)c3F)n2)C(C)(C)C)cc1 [DD.03.156]
logFC of CDK17 ([3]; Accession Q00537, experiment wp056): −1.825
logFC CDK17 (Q00537) ([3]; experiment wp056, direction of change down): −1.825
logFC LIMK1 ([6]; direction down, experiment wp056): −1.037
logFC LIMK1 ([6]; experiment wp056, down): −1.037
logFC LIMK2 ([7]; experiment wp056): −1.703
logFC of LIMK2 ([7]; experiment wp056): −1.703

CS(=O)(=O)c1ccc(-c2cccn3nc(Nc4cccc(N5CCN(CCCCCCNC(=O)COc6cccc7c6C(=O)N(C6CCC(=O)NC6=O)C7=O)CC5)c4)nc23)cc1 (centres unmarked) [JWG.120]
logFC AAK1 ([8]; AAK1 (Q2M218-1), experiment wp134, down): −0.3362
logFC AAK1 ([8]; AAK1, accession Q2M218-1, experiment wp134, direction of change down): −0.3362
logFC AURKA (O14965) ([9]; experiment wp134): −1.562

Cc1cnc(Nc2ccc(N3CCN(CCOCCOCCC(=O)N[C@H](C(=O)N4C[C@H](O)C[C@H]4C(=O)N[C@@H](C)c4ccc(-c5scnc5C)cc4)C(C)(C)C)CC3)cc2)nc1Nc1cccc(S(=O)(=O)NC(C)(C)C)c1 [JWG.122]
logFC AAK1 ([8]; AAK1 (Q2M218-1), experiment wp088, down): −0.6335
logFC AAK1 ([8]; AAK1, accession Q2M218-1, experiment wp088, direction of change down): −0.6335
logFC of GAK (O14976) ([10]; Experiment wp088, down): −0.3586
logFC GAK ([10]; GAK (O14976), direction down, experiment wp088): −0.3586

CC(=O)c1c(C)c2cnc(Nc3ccc(N4CCN(CC(=O)NCCOCCOCCOCCNc5cccc6c5C(=O)N(C5CCC(=O)NC5=O)C6=O)CC4)cn3)nc2n(C2CCCC2)c1=O (centres unmarked) [YKL.6.102]
logFC WEE1 (P30291-1) ([1]; experiment wp005): −0.3649
logFC CDK4 (P11802) ([2]; experiment wp005): −0.642

CN1c2ccccc2C(=O)Nc2cnc(Nc3ccc(N4CCN(C(=O)CCOCCNc5cccc6c5C(=O)N(C5CCC(=O)NC5=O)C6=O)CC4)cc3)nc21 (centres unmarked) [ZNL.03.127]
logFC LIMK1 ([6]; direction down, experiment wp149): −0.4764
logFC LIMK1 ([6]; experiment wp149, down): −0.4764
logFC TNK2 (Q07912-3) ([4]; Experiment wp149, direction down): −0.8778
logFC ([4]; TNK2 (Q07912-3), experiment wp149, direction down): −0.8778
logFC LIMK2 ([7]; experiment wp149): −0.3944
logFC of LIMK2 ([7]; experiment wp149): −0.3944
logFC BLK ([11]; BLK (P51451), direction down, experiment wp149): −0.5024
logFC of BLK (P51451) ([11]; Experiment wp149, down): −0.5024
logFC [12]: −0.4605
logFC STK17A [12]: −0.4605

COc1cc(Nc2ncc3c(n2)-c2ccc(Cl)cc2C(c2c(F)cccc2OC)=NC3)ccc1C(=O)NCCCOCCOCCOCCCNC(=O)COc1cccc2c1C(=O)N(C1CCC(=O)NC1=O)C2=O (centres unmarked) [dAURK.4]
logFC AURKA (O14965) ([9]; experiment wp080): −1.055
logFC [4, 13]: −0.3932
logFC AURKB [4, 13]: −0.3932
